Measurements as given in patent US20250122155A1, “NOVEL INDOLE DERIVATIVE, PHARMACEUTICAL COMPOSITION COMPRISING SAME, AND USE THEREOF” (MITOIMMUNE THERAPEUTICS INC., priority 2021, published 2025).
Where two headings read alike, the source gives them in different places.

Key:
H9C2 cells [1] = test: Protective effect on heart cells against t-BHP (LDH release); type: cell-based; conditions: H9C2, t-BHP 400 μM, 2 hours, read-out: EC50 (μM), Cell Protection Effect against t-BHP in Heart Cells
Procedure: In order to identify the protective effect with regard to heart cells, H9C2 cells were divided into 96-well plates by 1.5×10^4, and cultured for 24 hours. The respective wells were treated with compounds of the examples 3× serial diluted to final concentrations of 30, 10, 3, 1, 0.3, 0.1, 0.03 and 0.01 μM, then incubated for 15 to 20 minutes. After treating with t-BHP with a final concentration of 400 μM, incubation was performed for 2 hours. To confirm the protective effect of each compound, a Cytotoxicity LDH assay kit [Dojindo; CK12] was used to measure the degree of extracellular secretion of LDH. After 2-hour treatment of the cells with t-BHP was completed, 100 μL each of the supernatant in which the cells were placed was collected and moved to a new 96-well plate. 100 μL/well of the assay buffer included in the kit (same amount as the sample) was added, followed by wrapping with foil and reacting for 30 minutes at room temperature. Observing the change of color in the sample, 50 μL/well of stop solution was added, then an iD3 spectrometer was used to measure absorbance at 490 nm and calculate the EC50 values. The EC50 of the compounds of the examples is preferably no more than 1.0 μM, and more preferably no more than 0.3 μM.

H9C2 cells [2] = test: Maintenance of intracellular calcium level in heart cells treated with t-BHP (FLIPR Calcium 6); type: cell-based, rat; conditions: H9C2, t-BHP 150 μM
Procedure: To examine the maintenance effect on calcium level in heart cells, H9C2 cells were divided into a 96-well plate at 1.5×10^4 cells/well and cultured for 24 hours. To measure intracellular calcium level, a FLIPR Calcium 6 assay kit (Molecular devices; #R8190) was used. Following the experimental method provided by the manufacturer, cells were treated with probenecid and calcium-sensitive dye for 1.75 hours, and then the cells were treated with the compound of Example 2 for 0.25 hours (the final concentration of the compound was 0.02 or 0.01 μM). And the cells were treated with t-BHP to a final concentration of 150 μM, then intracellular calcium level was measured every 30 seconds in real time.
FIG. 1 is a graph regarding the regulatory effect of the compound of Example 2 on calcium level under t-BHP treatment. The ΔF/F(Max−Min) value on the vertical axis is the difference between the maximum and minimum fluorescence intensity values of the calcium-sensitive dye after treatment with t-BHP (150 μM), and this value increases as intracellular calcium level increases.

[3] = Plasma and brain drug concentration after oral administration (HPLC-MS/MS); type: in vivo
Procedure: […] parameters can be represented as maximum concentration in plasma (Cmax), time taken until maximum concentration in plasma (Tmax), area under the plasma concentration-time curve (AUClast and AUCinf), and half-life (t1/2), and the like.
The compound of Example 2 was orally administered to ICR mice at a dose of 10 mg/kg, and drug concentration in mouse plasma was measured using HPLC-MS/MS spectroscopy at 0.5, 1, 2, 4, 8 and 24 hours. The mouse brains were removed at 2 or 24 hours, and drug concentration in the brain was measured using HPLC-MS/MS spectroscopy. The area under the plasma concentration v. time curve (AUCinf) was measured to be […], and at 2 hours after administration drug concentration in plasma was 398 ng/mL and brain drug concentration was measured at 683 ng/mL. […] Further, at 24 hours after administration, for Example 2, drug concentration in plasma was measured to be 5.6 ng/mL and drug concentration in the brain was measured at 11.4 ng/mL. With the brain-plasma drug concentration ratio at 2.04, drug exposure in the brain was still high.
The Comparative Example compound was orally administered to ICR mice at a dose of 10 mg/kg, and drug concentration in mouse plasma was measured using HPLC-MS/MS spectroscopy at 0.5, 1, 2, 4, 8 and 24 hours. The mouse brains were removed at 2 or 24 hours, and drug concentration in the brain was measured using HPLC-MS/MS spectroscopy.

[4] = ICR mouse, oral 10 mg/kg, 2 hr, 10 mg/kg

EC50 (H9C2 cells [1]): ≤ 0.3 µM
AUClast, brain ([3]; ICR mouse, oral 10 mg/kg): 8319.0 ng·h/g
drug concentration in brain [3, 4]: 682.8 ng/mL
drug concentration in plasma [3, 4]: 398.2 ng/mL
AUC(0-inf) ([3]; ICR mouse, oral 10 mg/kg, plasma, read-out: area under the plasma concentration v. time curve (AUCinf)): 5420 ng·h/mL
concentration at 2 h ([3]; ICR, mouse, brain, po, 10 mg/kg, 2 hr, read-out: drug concentration in brain): 683 ng/mL
concentration at 24 h ([3]; ICR, mouse, brain, po, 10 mg/kg, 24 hr, read-out: drug concentration in brain): 11.4 ng/mL
concentration at 0.5 h ([3]; ICR, mouse, plasma, po, 10 mg/kg, 0.5 hr): 334 ng/mL
concentration at 1 h ([3]; ICR, mouse, plasma, po, 10 mg/kg, 1 hr): 337 ng/mL
concentration at 2 h ([3]; ICR, mouse, plasma, po, 10 mg/kg, 2 hr, read-out: drug concentration in plasma): 398 ng/mL
concentration at 4 h ([3]; ICR, mouse, plasma, po, 10 mg/kg, 4 hr): 672 ng/mL
concentration at 8 h ([3]; ICR, mouse, plasma, po, 10 mg/kg, 8 hr): 232 ng/mL
concentration at 24 h ([3]; ICR, mouse, plasma, po, 10 mg/kg, 24 hr, read-out: drug concentration in plasma): 5.6 ng/mL
AUC(0-t) ([3]; ICR, mouse, plasma, po, 10 mg/kg, plasma, read-out: area under the plasma concentration v. time curve (AUClast)): 5400 ng·h/mL
AUC(0-t) ([3]; ICR, mouse, plasma, po, 10 mg/kg, read-out: AUClast, plasma): 5400 ng·h/mL
Kp at 2 h ([3]; brain/plasma, ICR mouse, oral 10 mg/kg, 2 hr, read-out: brain-plasma drug concentration ratio (B/P ratio)): 1.71
Kp at 24 h ([3]; brain/plasma, ICR mouse, oral 10 mg/kg, 24 hr, read-out: brain-plasma drug concentration ratio (B/P ratio)): 2.04
Kp ([3]; brain/plasma, ICR mouse, oral 10 mg/kg, read-out: B/P ratio of AUClast): 1.74
Structure (SMILES): COCCOCc1cc(NC2CCCC2)c2[nH]c(-c3ccccc3)cc2c1 [Example 2, N-cyclopentyl-5-(2-methoxyethoxymethyl)-2-phenyl-1H-indol-7-amine]
intracellular calcium level, ΔF/F(Max−Min) (H9C2 cells [2]; compound 0.01 μM): significantly decreased
intracellular calcium level, ΔF/F(Max−Min) (H9C2 cells [2]; compound 0.02 μM): within normal range
